Results on one molecule are retold here after patent US10793526B2, “Hydantoin derivative compounds, methods of use and methods of treatment” (University of South Florida, priority 2016, dated 2020).

Data set [1] has as its system methicillin-resistant S. aureus (MRSA, ATCC 33591). Nature of the data set: Minimum inhibitory concentration (MIC) assay, MRSA. Format: cell-based, Staphylococcus aureus. As for the experimental part:
(§1) Minimum inhibitory concentrations (MICs) assay.^2
(§2) All compounds were tested against six different bacteria strains: methicillin-resistant S. aureus (MRSA, ATCC 33591), E. coli (ATCC 25922), methicillin-resistant S. epidermidis (MRSE, RP62A), K. pneumoniae (ATCC 13383), vancomycin-resistant Enterococcus faecalis (VREF, ATCC 700802), P. aeruginosa (ATCC 27853). One colony of each bacteria was inoculated in 4 mL TSB buffer at 37° C. overnight, which was then diluted 100 times, and the bacteria were allowed to grow to the mid-logarithmic phase. 50 μL hydantoin compounds in 2-fold serial dilution of TSB were added in the 96-well plate, then 50 μL diluted bacterial in TSB medium (1×10^6 CFU/mL) was added to each well. After 16 h of incubation at 37° C., the absorption at 600 nm wavelength on a Biotek Synergy HT microtiter plate reader was recorded. Minimum inhibitory concentrations were determined as the lowest concentrations that inhibited bacteria growth completely.

Data set [2] concerns red blood cells (RBCs) of mice. Nature of the data set: Hemolytic assay. Conditions: hemolytic activity; mouse RBCs, 1 h at 37° C. It counts as cell-based. The procedure: Fresh red blood cells (RBCs) of mice were washed with 1×PBS buffer and centrifuged 10 min at 3500 rpm for 3 times until the supernatant was clear, then RBCs were diluted into 5% v/v suspension in 1×PBS. 50 μL compounds in PBS were 2-fold serially diluted in a 96-well plate, and incubated with 50 μL RBCs suspension for 1 h at 37° C. The mixture was then centrifuged for 10 min at 3500 rpm. Subsequently, 30 μL of the supernatant was added to 100 μL PBS, then the absorbance of mixture was read on a Biotek Synergy HT plate reader at 540 nm. The hemolytic activity was calculated by the formula % hemolysis=(Abssample−AbsPBS)/(AbsTriton−AbsPBS)×100%. 1% Triton X-100 were used as the positive control and 1×PBS buffer was used as the negative control.

In data set [3] the test system is ovarian cancer cells (C13). Nature of the data set: Selectivity for mammalian cells, C13. It counts as cell-based. Conditions: Homo sapiens, read-out: IC50 toward ovarian cancer cells (C13).
For data set [4], the system named is colon cancer cells (HCT116). As to the kind of experiment: Selectivity for mammalian cells, HCT116. Conditions: Homo sapiens, HCT-116; read-out: IC50 toward colon cancer cells (HCT116). Format: cell-based.
For a further data set, the system named is E. coli. Nature of the data set: Time kill assay, E. coli. It counts as cell-based, Escherichia coli. The procedure: Bacteria MRSA (Gram-positive) and E. coli (Gram-negative) suspensions were allowed to grow at 37° C. to the mid-logarithmic phase, and diluted to 1×10^6 CFU/mL, […], 30 min, 1 h and 2 h, respectively. The resulted mixture was then diluted by 10^2 to 10^4 fold, from which 100 μL was spread on the TSB agar plate. The Number of bacteria colonies was counted after 20 h of incubation at 37° C.

For data set [5], the system named is P. aeruginosa (ATCC 27853). As to the kind of experiment: Minimum inhibitory concentration (MIC) assay, P. aeruginosa. Format: cell-based, Pseudomonas aeruginosa. The procedure:
as §1, §2

Data set [6] deals with vancomycin-resistant Enterococcus faecalis (VREF, ATCC 700802). Nature of the data set: Minimum inhibitory concentration (MIC) assay, VREF. The conditions noted are these: Enterococcus faecalis, ATCC700802, Gram positive, 16 h incubation, read-out: MIC (μg/mL) VREF. Format: cell-based. The procedure:
as §1, §2

For the next data set, the system named is E. coli (ATCC 25922). As to the kind of experiment: Minimum inhibitory concentration (MIC) assay, E. coli. It counts as cell-based, Escherichia coli. Conditions: Escherichia coli, ATCC25922, Gram negative, 16 h incubation, read-out: MIC (μg/mL) E. coli. The procedure: as §1, §2
The subject of data set [7] is MRSA-induced lung inflammation. Nature of the data set: Rat model of MRSA-induced pneumonia, pathological analysis (H&E). It counts as in vivo. Conditions: 10 mg/kg i.v. As for the experimental part: (§3) The rat model of MRSA-induced pneumonia.^4, 5
(§4) The protocol of animal studies was approved by the institutional committee for animal care of Nanjing University, and the experiments were conducted following the regulation of the National Ministry of Health of China. In Brief, male Wistar rats (6-8 weeks, ˜200 g in average weight) were subjected to fast for 12 h. Next, rats were anesthetized by intraperitoneal administration of 0.35 g/kg of chloral hydrate. To induce MRSA pneumonia, the trachea of rats were exposed, to which 100 μL PBS containing 2×10^6 CFU/mL MRSA in PBS was slowly injected. The rats were retained upright for 1 min, and the cut was sealed. The MRSA infection was allowed to develop for 24 h.
The hydantoin compound 22 or vancomycin were used as antibiotics in the study. In brief, a dose of 10 mg/kg of the drug was injected to the tested rats intravenously. On the day of 3 and 5, rats were sacrificed, and lung sections were stained with hematoxylin and eosin (H&E), and their morphology was investigated under a light microscope at 100× magnification. The existence (indicated by the infiltration of neutrophils) and the extent of possible inflammatory response (indicated by the integrity of the alveolar structure and endothelium cilium) were recorded from at least five randomly picked sections by an experienced physician.

For another data set, the system named is MRSA. As to the kind of experiment: Rat model of MRSA-induced pneumonia, bacterial count in lungs. It counts as in vivo. Conditions: 10 mg/kg i.v. As for the experimental part:
as §3, §4
Bronchoalveolar lavage (BAL) assay.
The assay was carried out to quantify the bacteria in the lungs of rats. The thorax of rats was opened, and the lungs were collected in each group at different time points. Then the lungs were malleated and homogenized by a glass homogenizer, and diluted with PBS to the determined volume. After that, 10 μL solution was picked up, diluted with PBS by 100-fold, and daubed on the isolation medium. Bacteria were counted in each sample after incubation for 24 h at 37° C., from which the number of bacteria (colonies/g tissue) was calculated.

The subject of data set [8] is K. pneumoniae (ATCC 13383). As to the kind of experiment: Minimum inhibitory concentration (MIC) assay, K. pneumoniae. It counts as cell-based, Klebsiella pneumoniae. Conditions: Klebsiella pneumoniae, ATCC13383, Gram negative, 16 h incubation, read-out: MIC (μg/mL) K.P. The procedure: as §1, §2

Molecules are shown by their SMILES. In brackets after ≈: the same amount, converted by molar mass.

As to `CCCCCCCCCCCC(=O)N[C@@H](CCCCN)CN1CC(=O)N(c2cccc(Cl)c2)C1=O` [Compound 22, (S)—N-(6-amino-1-(3-(3-chlorophenyl)-2,4-dioxoimidazolidin-1-yl)hexan-2-yl)dodecanamide], the MIC was determined as 0.5 µg/mL in data set [1] (Staphylococcus aureus, Gram positive, ATCC 33591, 16 h incubation, read-out: MIC (μg/mL) MRSA); 1 µg/mL in data set [5] (Pseudomonas aeruginosa, ATCC27853, Gram negative, ATCC 27853, 16 h incubation, read-out: MIC (μg/mL) P.A.); 0.5 µg/mL in data set [6]; 1 µg/mL in the data set on E. coli (ATCC 25922); 0.78 µg/mL in data set [8]. Besides, the “effectiveness toward MRSA compared with nitrofurantoin” value in [1] (ratio of MICs) is recorded as 25 fold. Besides, the concentration for 50% haemolysis (HC50) in data set [2] came to 95 µg/mL. The IC50 is 90 µg/mL (≈ 177 µM) in data set [3] and 100 µg/mL (≈ 197 µM) in [4]. Also, the “time to completely eradicate E. coli” value in the data set on E. coli (4.0 μg/mL (4×MIC)) was 60 min. For the same molecule, the “time to eradicate all E. coli” value in the data set on E. coli (25 μg/mL) and in the data set with E. coli (50 μg/mL) was 30 min each time. For the same molecule, the “effectiveness toward P. aeruginosa compared with nitrofurantoin” value in data set [5] (ratio of MICs) is recorded as “at least 50 fold”. Also, the “lung inflammation (H&E staining), day 3” value in data set [7] (day 3) was “only mild inflammation”. Besides, in data set [7] (day 5), the “lung inflammation (H&E staining), day 5” value is “virtually the normal condition”. In addition, the “reduction of bacteria compared with the control, day 5” value in the data set with MRSA came out at 96%.

Broadly, the HC50 is the concentration giving 50% haemolysis. In general, IC50 refers to the concentration that inhibits the measured activity by half.
